Like-named read-outs stand apart in the source and are kept apart here.
What was measured:
PHD1 = PHD1 (Homo sapiens, UniProt Q96KS0); assay: MALDI-TOF MS PHD hydroxylation assay; type: biochemical
Procedure: (§1) Protocols for in vitro PHD1–3 MALDI-TOF MS hydroxylation assays[30] and for the AlphaScreen histone demethylase assays[44] were as reported.
(§2) Although sharing homologous C-terminal catalytic domains, the N-terminal regions of PHD1–3 vary. […] In vitro inhibition assays of the clinical trial PHD inhibitors (and some of their structurally related analogue) against 1 μM recombinant human PHD1–3 were performed.
(§3) Fig. S11. In vitro PHD isoform selectivity profiling of PHD inhibitors. Inhibition of PHD inhibitors against human PHD125 -3 as assayed by MALDI-TOF MS (the protocol is described in Chan et al. ). Eight concentrations were used to obtained dose-response curve for each compound. Data points presented in the graph are mean with standard deviation, n=3. IC50 values (listed in Supplemental Table S3) were calculated using GraphPad Prism® 5.04.
(§4) (1 picture or pasted object on this page, not shown here)

PHD3 = PHD3 (Homo sapiens, UniProt Q9H6Z9); assay: MALDI-TOF MS PHD hydroxylation assay; type: biochemical
Procedure: as §1, §2, §3, §4

[1] = tested on: HIF-1α and HIF-2α in Hep3b cells; assay: Immunoblotting of HIF-α stabilization in Hep3b cells; type: cell-based, human
Procedure: We then investigated potential time dependent effects of the inhibitors on HIF-α stabilization in Hep3b cells (Fig. 5A). […]
Cell Culture and Immunoblotting
HeLa and RCC4 cells were cultured in Dulbecco’s Modified Eagle’s Medium (DMEM; Sigma Aldrich D6546-500ML) supplemented with 10% fetal bovine serum (Sigma Aldrich F7524-500ML), 4 mM L-glutamine (Sigma Aldrich G7513- 100ML), 50 U/mL penicillin, and 50 μg/mL streptomycin (Sigma Aldrich P0781-100ML). Cells were seeded to reach 90-100% confluency prior to compound treatment. Cells were exposed to the inhibitor at a final concentration of 1% DMSO for 5-6 hours. For Fe(II) titration in the presence of inhibitors, […]
Cells were harvested in urea/SDS buffer (6.7 M urea, 10 mM Tris-Cl pH 6.8, 10% glycerol, and1% SDS) supplemented with 1mM dithiothreitol following a phosphate-buffered saline (PBS) rinse. Cell extracts were analyzed with SDS-PAGE, electroblotted to polyvinylidene difluoride (PVDF) membrane (Millipore) and probed with the corresponding primary antibody for 1 hour at room temperature or overnight at 4 °C. The secondary antibody specific to primary antibody species conjugated with HRP were applied at room temperature for 1 hour.
Millipore), anti-HIF-1α Hyp564 (D43B5, Cell Signaling), anti-HIF-1α HyN803 (a generous […]
Abcam). Details of antibodies used are given in Tian et al.17 Detection of signal was achieved […]
unless otherwise stated) either with film or ChemiDoc MP (BIO-RAD) imaging system. TM Quantification of the immunobloting signal was performed with Image Lab software from […]

[2] = tested on: HIF-1α in HeLa and U2OS cells, HIF-1α and HIF-2α in Hep3b cells; assay: Immunoblotting of HIF-α stabilization, dose titration; type: cell-based, human; details: 6 hours treatment, all of the cells tested
Procedure: The cellular HIF-α stabilization was further studied using immunoblotting. […]. page 15: […]
freshly every day as a 400 mM stock solution in 20 mM HCl, this was then diluted to 1 mM in deionized water. L-ascorbic acid (50 mM) and 2OG stock solutions (10 mM) were prepared freshly every day in deionized water as for the PHD2 assays14 . The synthetic consensus ankyrin […]
peptide ([…]-CONH2) was synthesized by GL Biochem
(Shanghai) Ltd and dissolved to 1 mM in deionized water.
20 μl FIH (100 nM) in the assay buffer (50 mM Tris.Cl pH 7.8, 50 mM NaCl) was pre-incubated for 15 minutes in the presence of the inhibitors and the enzyme reaction initiated by addition of 20 μl substrate (200 μM L-ascorbic acid, 20 μM Fe2+, 10 μM synthetic ankyrin peptide 14 and 20 μM 2OG). After 15 minutes the reaction was quenched by addition of 4 μl 10% formic acid and the reaction transferred to a RapidFire RF360 high throughput sampling robot. Samples were aspirated under vacuum onto a C4 Solid Phase Extraction (SPE) cartridge.
After an aqueous washing step (0.1% formic acid in water), to remove non-volatile buffer components from the C4 SPE, peptide was eluted in an organic washing step (85% acetonitrile in water, 0.1% formic acid) and injected into an Agilent 6530 Q-TOF mass spectrometer. Ion chromatogram data was extracted for the non-hydroxylated peptide substrate and the hydroxylated peptide product; the peak area data for extracted ion chromatograms were integrated using RapidFire Integrator software. % conversion of substrate to product was calculated in Microsoft excel and IC50 curves generated using Graphpad Prism.
Cell Culture and Immunoblotting […]
Cells were harvested in urea/SDS buffer (6.7 M urea, 10 mM Tris-Cl pH 6.8, 10% glycerol, and1% SDS) supplemented with 1mM dithiothreitol following a phosphate-buffered saline (PBS) rinse. Cell extracts were analyzed with SDS-PAGE, electroblotted to polyvinylidene difluoride (PVDF) membrane (Millipore) and probed with the corresponding primary antibody for 1 hour at room temperature or overnight at 4 °C. […]

[3] = 1μM isolated recombinant human PHD1, MALDI-TOF MS, read-out: IC50 PHD1
[4] = 1μM isolated recombinant human PHD3, MALDI-TOF MS, read-out: IC50 PHD3

Sequence of PHD1 (Q96KS0 whole entry): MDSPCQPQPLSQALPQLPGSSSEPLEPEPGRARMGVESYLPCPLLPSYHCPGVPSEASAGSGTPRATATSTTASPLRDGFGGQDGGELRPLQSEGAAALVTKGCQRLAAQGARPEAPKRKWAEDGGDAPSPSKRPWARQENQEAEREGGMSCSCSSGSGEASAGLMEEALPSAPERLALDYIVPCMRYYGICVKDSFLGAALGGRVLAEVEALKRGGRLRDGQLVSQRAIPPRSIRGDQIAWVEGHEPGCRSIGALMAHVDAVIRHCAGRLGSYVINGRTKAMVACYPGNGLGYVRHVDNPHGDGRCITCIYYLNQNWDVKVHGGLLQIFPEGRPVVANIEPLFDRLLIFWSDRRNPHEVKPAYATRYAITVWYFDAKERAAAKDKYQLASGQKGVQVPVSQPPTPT
Sequence of PHD3 (Q9H6Z9 whole entry): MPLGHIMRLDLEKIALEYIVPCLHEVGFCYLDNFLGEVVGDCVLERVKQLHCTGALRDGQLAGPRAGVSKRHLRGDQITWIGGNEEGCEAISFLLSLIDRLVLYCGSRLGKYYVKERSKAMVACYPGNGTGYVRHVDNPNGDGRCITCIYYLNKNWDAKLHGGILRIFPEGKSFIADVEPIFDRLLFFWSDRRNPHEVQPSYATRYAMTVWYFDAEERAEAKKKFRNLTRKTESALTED

SMILES | IC50 (PHD1; [3]) | IC50 (PHD3; [4]) | time at which HIF-2α level saturated ([1]; 2.5 μM) | time at which HIF-1α level saturated ([1]; 10 μM) | time at which HIF-2α level saturated ([1]; 10 μM) | concentration from which dose-dependent HIF-1α stabilization was clear ([1]; up to 6 hours) | IC50 (PHD1) | IC50 (PHD3) | concentration at which HIF-1α levels (and HIF-2α levels in Hep3b cells) were saturated [2]
CC(C)(C)OC(=O)c1ccc(-n2[nH]cc(-n3ccnn3)c2=O)nc1 [IOX4] | 0.55 µM | 0.69 µM | 1 h | 3 to 6 h | 3 to 10 h | – | – | – | –
O=C(O)CNC(=O)c1ncc(-c2cccc(Cl)c2)cc1O [Vadadustat] | 0.84 µM | 0.26 µM | – | – | – | ≥ 50 µM | – | – | –
O=C(O)CNC(=O)C1C(=O)N(C2CCCCC2)C(=O)N(C2CCCCC2)C1=O [GSK1278863] | – | – | – | 3 h | 3 h | – | 1.5 µM | 0.61 µM | < 100 µM
Cc1nc(C(=O)NCC(=O)O)c(O)c2ccc(Oc3ccccc3)cc12 [FG-4592] | 1.4 µM | 1.32 µM | – | – | – | – | – | – | < 100 µM
O=c1c(-n2ccnn2)c[nH]n1-c1cc(N2CCOCC2)ncn1 [Molidustat] | 1.45 µM | 0.72 µM | 1 h | after the first hour | after the first hour | – | – | – | < 100 µM
